One may read the IC50 as the point on the concentration scale where inhibition reaches its midpoint.

The target in the assay is T1, AfCel6A (Aspergillus fumigatus, UniProt Q4WFK4).
T1 construct: gene cbhC; without predicted signal peptide (forward primer encodes QQTVW start) in pPICZαA, with N-terminal CBM1, His6 tag kept, secreted by Pichia pastoris X-33, about 65 kDa
T1 sequence (Q4WFK4 20-454): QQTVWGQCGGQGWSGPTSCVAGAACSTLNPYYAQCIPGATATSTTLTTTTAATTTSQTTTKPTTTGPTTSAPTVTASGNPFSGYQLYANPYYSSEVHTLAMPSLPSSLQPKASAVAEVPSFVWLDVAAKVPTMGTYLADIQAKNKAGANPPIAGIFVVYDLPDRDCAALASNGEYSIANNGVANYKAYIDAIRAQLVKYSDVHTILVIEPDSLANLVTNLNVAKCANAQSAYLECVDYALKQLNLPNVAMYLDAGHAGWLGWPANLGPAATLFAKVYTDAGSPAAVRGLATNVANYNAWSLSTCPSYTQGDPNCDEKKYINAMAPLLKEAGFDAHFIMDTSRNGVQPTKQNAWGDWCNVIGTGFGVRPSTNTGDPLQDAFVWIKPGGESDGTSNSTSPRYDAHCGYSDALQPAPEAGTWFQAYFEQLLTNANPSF
Kind of assay: activity at rising sugar concentration ([…]), substrate 4-nitrophenyl β-D-cellobioside. The class given is biochemical. Conditions: product inhibition; the text also states 50% inhibition at 100 mM.

Turning to `OC[C@H]1O[C@@H](O[C@H]2[C@H](O)[C@@H](O)C(O)O[C@@H]2CO)[C@H](O)[C@@H](O)[C@@H]1O` (stereo partly shown) [cellobiose], the IC50 was greater than 100 mM.
